Test results from publication PMC8854719, “Phase 1A/1B dose-escalation and -expansion study to evaluate the safety, pharmacokinetics, food effects and antitumor activity of pamiparib in advanced solid tumours” (British Journal of Cancer, 2021).

Tested on: epithelial ovarian cancer (EOC)
Experiment: Tumour response and PFS per RECIST v1.1, EOC efficacy-evaluable population
Type: in vivo, human
Experimental: Tumour response was evaluated by RECIST v1.1. For patients with ovarian cancer, tumour response was assessed per RECIST v1.1 and by Gynecologic Cancer Intergroup (GCIG) CA-125 criteria. Tumour response for patients with prostate cancer was assessed by Prostate Cancer Clinical Trials Working Group 2 (PCWG2) criteria. Objective response rate (ORR) was defined as the proportion of patients achieving a confirmed complete response (CR) or partial response (PR) on study treatment. Blood tumour antigens (e.g., carcinoembryonic antigen for colorectal cancer, CA-125 for ovarian cancer and prostate-specific antigen [PSA] for mCRPC) were assessed during screening, every 6 weeks after the first pamiparib dose in the first 12 months, and every 9 weeks thereafter.
Analyses of ORR (95% confidence interval [CI]) by investigator assessment were performed using predefined subgroups of the EOC population, including age group (<65 years versus ≥65 years), baseline ECOG performance status (0 versus 1), solid tumour stage (Stage III versus IV), BRCA/HRD status (germline BRCA mutation versus wild-type or unknown; germline or somatic BRCA mutation versus wild-type or unknown; HRD-positive versus negative or unknown), and platinum response status (platinum-sensitive versus platinum-resistant versus platinum-refractory).
The safety population comprised all patients in the dose-escalation and dose-expansion phases who received at least one dose of pamiparib (Supplementary Table S2). Patients in the safety analysis set for whom valid pamiparib PK parameters were estimated and for whom evaluable PD results were available represented the PK population and the PD population, respectively. The efficacy-evaluable population included patients in the safety analysis set who had at least one evaluable postbaseline tumour assessment or those who discontinued due to clinical disease progression or early death before tumour assessment could be performed. The EOC efficacy-evaluable population was a subset of the overall efficacy-evaluable population that included patients with EOC from both the dose-escalation and dose-expansion phases. Patients in the dose-expansion phase without measurable disease at baseline per RECIST v1.1 were excluded from the efficacy-evaluable population.
Descriptive statistics were used to summarise all study data (see Supplemental Appendix). Progression-free survival (PFS) and event-free rates were estimated using the Kaplan–Meier method along with the corresponding 95% CI. Pharmacokinetic parameters were derived using standard non-compartmental methods with Phoenix WinNonlin Version 6.4 or higher (Pharsight Corp., Mountain View, California).

[1] = EOC evaluable for efficacy (N=60)
[2] = EOC, Total BID Dosage Group (n=51)

C[C@]12CCCN1CC1=NNC(=O)c3cc(F)cc4[nH]c2c1c34 [pamiparib]
CR [1]: 6.7%
PR [1]: 31.7%
Event-free rate, 1 year (EOC, Total (N=60)): 41.0 (26.93-54.59) % (95% CI)
Event-free rate, 2 years (EOC, Total (N=60)): 14.8 (5.46-28.41) % (95% CI)
ORR, subgroup Age <65 (EOC, Total (N=60)): 39.5 (24.98-55.59) [43/60] % (95% CI)
ORR, subgroup Age ≥65 (EOC, Total (N=60)): 35.3 (14.21-61.67) [17/60] % (95% CI)
ORR, subgroup Baseline ECOG performance status 0 (EOC, Total (N=60)): 45.8 (25.55-67.18) [24/60] % (95% CI)
ORR, subgroup Baseline ECOG performance status ≥1 (EOC, Total (N=60)): 33.3 (18.56-50.97) [36/60] % (95% CI)
ORR, subgroup Germline BRCA status Mutant (EOC, Total (N=60)): 66.7 (40.99-86.66) [18/60] % (95% CI)
ORR, subgroup Germline BRCA status Wild-type/Unknown (EOC, Total (N=60)): 26.2 (13.86-42.04) [42/60] % (95% CI)
ORR, subgroup Germline or somatic BRCA status Mutant (EOC, Total (N=60)): 61.3 (42.19-78.15) [31/60] % (95% CI)
ORR, subgroup Germline or somatic BRCA status Wild-type/Unknown (EOC, Total (N=60)): 13.8 (3.89-31.66) [29/60] % (95% CI)
ORR, subgroup HRD status Negative/Unknown (EOC, Total (N=60)): 15.4 (4.36-34.87) [26/60] % (95% CI)
ORR, subgroup HRD status Positive (EOC, Total (N=60)): 55.9 (37.89-72.81) [34/60] % (95% CI)
ORR, subgroup Platinum-sensitivity status Refractory (EOC, Total (N=60)): 8.3 (0.21-38.48) [12/60] % (95% CI)
ORR, subgroup Platinum-sensitivity status Resistant (EOC, Total (N=60)): 16.7 (4.74-37.38) [24/60] % (95% CI)
ORR, subgroup Platinum-sensitivity status Sensitive (EOC, Total (N=60)): 75.0 (53.29-90.23) [24/60] % (95% CI)
ORR, subgroup Solid tumor stage 3 (EOC, Total (N=60)): 45.5 (28.11-63.65) [33/60] % (95% CI)
ORR, subgroup Solid tumor stage 4 (EOC, Total (N=60)): 26.1 (10.23-48.41) [23/60] % (95% CI)
PFS censored: No disease progression or death (EOC, Total (N=60)): 17 (28.3) n (%)
PFS censored: No postbaseline assessment (EOC, Total (N=60)): 2 (3.3) n (%)
PFS censored: ≥2 consecutive missed assessments (EOC, Total (N=60)): 2 (3.3) n (%)
PFS events: Death (EOC, Total (N=60)): 9 (15.0) n (%)
PFS events: Disease progression (EOC, Total (N=60)): 30 (50.0) n (%)
PFS: Censored (EOC, Total (N=60)): 21 (35.0) n (%)
PFS: Events (EOC, Total (N=60)): 39 (65.0) n (%)
Progression-Free Survival, Median (EOC, Total (N=60)): 8.3 (5.45-13.67) months (95% CI)
Event-free rate, 1 year [2]: 45.6 (29.51-60.25) % (95% CI)
Event-free rate, 2 years [2]: 16.4 (5.98-31.33) % (95% CI)
ORR, subgroup Age <65 [2]: 42.1 (26.31-59.18) [38/51] % (95% CI)
ORR, subgroup Age ≥65 [2]: 38.5 (13.86-68.42) [13/51] % (95% CI)
ORR, subgroup Baseline ECOG performance status 0 [2]: 47.8 (26.82-69.41) [23/51] % (95% CI)
ORR, subgroup Baseline ECOG performance status ≥1 [2]: 35.7 (18.64-55.93) [28/51] % (95% CI)
ORR, subgroup Germline BRCA status Mutant [2]: 73.3 (44.90-92.21) [15/51] % (95% CI)
ORR, subgroup Germline BRCA status Wild-type/Unknown [2]: 27.8 (14.20-45.19) [36/51] % (95% CI)
ORR, subgroup Germline or somatic BRCA status Mutant [2]: 64.3 (44.07-81.36) [28/51] % (95% CI)
ORR, subgroup Germline or somatic BRCA status Wild-type/Unknown [2]: 13.0 (2.78-33.59) [23/51] % (95% CI)
ORR, subgroup HRD status Negative/Unknown [2]: 14.3 (3.05-36.34) [21/51] % (95% CI)
ORR, subgroup HRD status Positive [2]: 60.0 (40.60-77.34) [30/51] % (95% CI)
ORR, subgroup Platinum-sensitivity status Refractory [2]: 9.1 (0.23-41.28) [11/51] % (95% CI)
ORR, subgroup Platinum-sensitivity status Resistant [2]: 21.1 (6.05-45.57) [19/51] % (95% CI)
ORR, subgroup Platinum-sensitivity status Sensitive [2]: 76.2 (52.83-91.78) [21/51] % (95% CI)
ORR, subgroup Solid tumor stage 3 [2]: 53.6 (33.87-72.49) [28/51] % (95% CI)
ORR, subgroup Solid tumor stage 4 [2]: 23.8 (8.22-47.17) [21/51] % (95% CI)
PFS censored: No disease progression or death [2]: 15 (29.4) n (%)
PFS censored: No postbaseline assessment [2]: 2 (3.9) n (%)
PFS censored: ≥2 consecutive missed assessments [2]: 2 (3.9) n (%)
PFS events: Death [2]: 6 (11.8) n (%)
PFS events: Disease progression [2]: 26 (51.0) n (%)
PFS: Censored [2]: 19 (37.3) n (%)
PFS: Events [2]: 32 (62.7) n (%)
Progression-Free Survival, Median [2]: 9.9 (5.49-14.62) months (95% CI)
Best overall response: Complete response (EOC, Total BID and QD (N=60)): 4 (6.7) n (%)
